# Measurements published in patent US7592422B2, “Modified plasminogen activator inhibitor type-1 and methods based thereon” (Medical College of Ohio, priority 2002, dated 2009).
# Tests used:
# [1] = test system: chicken chorioallantoic membrane (angiogenesis in chick embryos); assay: Chicken chorioallantoic membrane (CAM) assay; assay type: in vivo
# Method: The one-day-old fertilized eggs were incubated for three days in the water-jacketed incubator (38° C., 85% humidity). The eggs were cracked and the chick embryos with intact yolks were placed in plastic Petri dishes containing 10 ml of RPMI-1640 medium (38° C., 85% humidity, 3% of CO2). After 3 days of incubation, the methylcellulose disk containing inhibitor was implanted on the CAMs of the individual embryos. After 48 h of incubation, CAM of individual embryo was analyzed for formation of avascular zones and photographed. The angiostatic effect was determined as a percentage of the area of blood vessels under the methylcellulose disks (3-5 eggs for each concentration) in relation to the non-treated areas. The area below the dialysis bag and two non-treated areas were scanned and saved on computer disk as tif files. Color images were converted into black/white images, contrast was enhanced, and images were saved as 16-bitmap files using Paint Software (Microsoft Corporation, Redmond, Va.). Black/white images were converted into false color (rainbow striped) images using Transform2 Software (Fortner, Sterling, Va.). […] This method provides some quantification of angiogenesis.
# [2] = target: urokinase HMWt, Choay (Homo sapiens, UniProt P00749); settings: 0.05 M Tris pH 8.8, 37° C., substrate 0.5 mM, urokinase at 1000 u/mL; cited from earlier work
# [3] = target: urokinase LMWt, Abbott (Homo sapiens, UniProt P00749); settings: 0.05 M Tris pH 8.8, 37° C., substrate 0.5 mM, urokinase at 1000 u/mL; cited from earlier work
molecule,measurement,setting,value
"O=C(O[C@@H]1Cc2c(O)cc(O)cc2O[C@@H]1c1cc(O)c(O)c(O)c1)c1cc(O)c(O)c(O)c1 [EGCG, epigallocatechin gallate]",colour change of methylcellulose disks (sign of probable oxidation),[1]; in methylcellulose disk on CAM,the methylcellulose disks quickly change color
N=C(N)NC(=O)c1nc(Cl)c(N)nc1N [amiloride],large avascular zones outside of areas covered by methylcellulose disk containing the inhibitor,[1]; 48 h,The effect was observed
Cbo-L-(γ)-Glu (α-t-BuO)-Gly-Arg-pNA.2AcOH [No. 244],Vmax,[2],0.54 μM mm-^1
same,κm,[2],30 µM
same,Vmax,[3],0.53 μM mm-^1
same,κm,[3],80 µM
VEGF,"vessel formation, positive control disk",[1]; methylcellulose disk containing VEGF,dense areas of newly formed vessels were developed
